Experimental data published in PMC6437697 (Journal of Medicinal Chemistry, 2019).

Legend:
Assay in all cases: KINOMEscan
Assay type in all cases: binding
Conditions in all cases: read-out: % control activity remaining
ACVR1 = biological target: T1, ACVR1 (Homo sapiens, UniProt Q04771)
T1 construct: purchased Eurofins DiscoverX KINOMEscan
T1 sequence (Q04771 21-509): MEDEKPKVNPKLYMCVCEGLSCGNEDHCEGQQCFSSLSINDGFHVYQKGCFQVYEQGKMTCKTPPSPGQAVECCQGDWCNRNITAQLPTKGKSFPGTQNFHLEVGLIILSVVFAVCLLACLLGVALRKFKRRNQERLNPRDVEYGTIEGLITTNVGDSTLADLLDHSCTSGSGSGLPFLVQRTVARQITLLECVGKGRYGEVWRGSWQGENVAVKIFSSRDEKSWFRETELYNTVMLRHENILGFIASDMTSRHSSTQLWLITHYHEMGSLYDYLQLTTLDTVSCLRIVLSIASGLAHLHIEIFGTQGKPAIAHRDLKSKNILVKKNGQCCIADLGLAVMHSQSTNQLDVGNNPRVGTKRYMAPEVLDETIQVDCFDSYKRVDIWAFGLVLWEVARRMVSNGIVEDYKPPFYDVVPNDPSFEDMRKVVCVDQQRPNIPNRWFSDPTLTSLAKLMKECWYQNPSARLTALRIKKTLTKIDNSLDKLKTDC

CAMK1D = biological target: T2, CAMK1D (Homo sapiens, UniProt Q8IU85)
T2 construct: purchased Eurofins DiscoverX KINOMEscan

SRPK3 = biological target: T3, SRPK3 (Homo sapiens, UniProt Q9UPE1)
T3 construct: purchased Eurofins DiscoverX KINOMEscan

ICK = biological target: T4, ICK (Homo sapiens, UniProt Q9UPZ9)
T4 construct: purchased Eurofins DiscoverX KINOMEscan
T4 sequence (Q9UPZ9 1-632): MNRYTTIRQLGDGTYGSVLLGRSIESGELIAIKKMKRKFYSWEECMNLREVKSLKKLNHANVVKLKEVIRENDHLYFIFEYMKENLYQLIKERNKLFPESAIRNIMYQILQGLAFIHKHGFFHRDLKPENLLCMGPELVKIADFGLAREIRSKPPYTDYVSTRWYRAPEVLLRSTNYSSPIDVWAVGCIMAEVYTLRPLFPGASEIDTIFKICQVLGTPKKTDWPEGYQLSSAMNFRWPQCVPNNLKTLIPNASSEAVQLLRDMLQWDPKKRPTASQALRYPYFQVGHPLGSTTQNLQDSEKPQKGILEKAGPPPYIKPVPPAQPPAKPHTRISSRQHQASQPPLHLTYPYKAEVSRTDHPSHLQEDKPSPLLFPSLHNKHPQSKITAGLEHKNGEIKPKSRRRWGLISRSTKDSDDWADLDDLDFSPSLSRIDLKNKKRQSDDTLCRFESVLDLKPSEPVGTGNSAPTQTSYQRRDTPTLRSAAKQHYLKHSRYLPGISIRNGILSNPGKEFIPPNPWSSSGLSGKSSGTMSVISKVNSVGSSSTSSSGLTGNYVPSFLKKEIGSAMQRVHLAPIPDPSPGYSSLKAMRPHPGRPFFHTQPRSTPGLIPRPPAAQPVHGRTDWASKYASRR

p38-delta = biological target: T5, p38-delta (Homo sapiens, UniProt O15264)
T5 construct: purchased Eurofins DiscoverX KINOMEscan
T5 sequence (O15264 1-365): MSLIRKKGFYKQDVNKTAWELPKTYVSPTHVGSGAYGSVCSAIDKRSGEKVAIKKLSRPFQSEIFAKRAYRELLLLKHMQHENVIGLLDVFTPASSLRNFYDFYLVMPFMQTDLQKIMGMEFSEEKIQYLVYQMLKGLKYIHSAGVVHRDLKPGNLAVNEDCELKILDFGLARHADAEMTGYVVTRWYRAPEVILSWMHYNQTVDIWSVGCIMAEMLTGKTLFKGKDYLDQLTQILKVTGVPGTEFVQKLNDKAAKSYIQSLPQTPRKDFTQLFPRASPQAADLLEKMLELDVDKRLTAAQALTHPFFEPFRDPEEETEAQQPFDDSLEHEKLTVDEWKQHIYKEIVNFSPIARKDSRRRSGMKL

T3 sequence (Q9UPE1 whole entry): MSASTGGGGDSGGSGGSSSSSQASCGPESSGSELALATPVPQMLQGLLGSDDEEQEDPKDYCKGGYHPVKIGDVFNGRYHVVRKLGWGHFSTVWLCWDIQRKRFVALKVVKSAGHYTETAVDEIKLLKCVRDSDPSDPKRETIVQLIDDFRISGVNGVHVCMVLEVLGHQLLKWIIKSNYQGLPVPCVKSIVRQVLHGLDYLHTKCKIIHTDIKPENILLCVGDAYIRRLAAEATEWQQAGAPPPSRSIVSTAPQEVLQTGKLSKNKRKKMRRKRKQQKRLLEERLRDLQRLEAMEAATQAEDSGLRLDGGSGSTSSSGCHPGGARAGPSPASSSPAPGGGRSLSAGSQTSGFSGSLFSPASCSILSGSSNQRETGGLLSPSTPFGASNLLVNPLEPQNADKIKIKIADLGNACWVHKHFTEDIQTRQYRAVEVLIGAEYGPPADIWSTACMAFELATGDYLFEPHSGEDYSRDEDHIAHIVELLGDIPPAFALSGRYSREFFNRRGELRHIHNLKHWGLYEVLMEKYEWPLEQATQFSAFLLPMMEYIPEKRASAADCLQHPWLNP
T2 sequence (Q8IU85 whole entry): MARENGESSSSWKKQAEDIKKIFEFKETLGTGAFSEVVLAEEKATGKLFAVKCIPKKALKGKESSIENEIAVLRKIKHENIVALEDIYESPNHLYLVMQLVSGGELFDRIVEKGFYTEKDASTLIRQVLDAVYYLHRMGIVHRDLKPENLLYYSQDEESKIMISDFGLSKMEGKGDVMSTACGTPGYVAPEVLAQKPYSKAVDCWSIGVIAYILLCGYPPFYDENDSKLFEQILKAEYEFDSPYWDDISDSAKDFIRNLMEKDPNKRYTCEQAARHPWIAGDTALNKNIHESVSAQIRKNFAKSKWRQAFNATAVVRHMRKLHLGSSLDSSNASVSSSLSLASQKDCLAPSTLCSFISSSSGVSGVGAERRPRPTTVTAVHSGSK

Row | SMILES | remaining binding at 1 µM (ACVR1) [%] | remaining binding at 1 µM (CAMK1D) [%] | remaining binding at 1 µM (SRPK3) [%] | remaining binding at 1 µM (ICK) [%] | remaining binding at 1 µM (p38-delta) [%]
1 | CN1CCC(CNc2cc(Cl)nn3c(-c4cc5nc(Nc6ccccc6)[nH]c5cc4F)cnc23)CC1 [compound 31, 6-Chloro-3-(6-fluoro-2-(phenylamino)-1H-benzo[d]imidazol-5-yl)-N-((1-methylpiperidin-4-yl)methyl)imidazo[1,2-b]pyridazin-8-amine] | 99 | 85 | 100 | 97 | 72
2 | O=C(CN1CCOCC1)N[C@H]1CC[C@H](Nc2cc(Cl)nn3c(-c4ccc5[nH]ncc5c4)cnc23)CC1 [compound 26] | 95 | 71 | 66 | 74 | 60
3 | Clc1cc(NCC2CC2)c2ncc(-c3ccc4[nH]ncc4c3)n2n1 [compound 2, 6-Chloro-N-(cyclopropylmethyl)-3-(1H-indazol-5-yl)imidazo[1,2-b]pyridazin-8-amine] | 90 | 100 | 49 | 80 | 89
